In patent US20040116330A1, “Preventive/therapeutic method for cancer” (priority 2001, published 2004):

What was measured:
[1] = tested on: HER2 high expression human breast cancer cells BT-474; settings: HER2 score 3+, dose 20 mg/kg/day orally for 14 days
Protocol: Immediately after transplantation and day 7 after the transplantation, estradiol dipropionate (5 mg/kg solution, 50 μL) was intramuscularly administered to the hind leg with the aim of enhancing the survival rate of the tumor. HER2 expression human non-parvicellular lung cancer A549 cells were suspended in Matrigel solution and 5,000,000 cells were subcutaneously transplanted into the chest of female BALB/c nude mouse (6 weeks of age). HER2 expression human kidney cancer ACHN cells (2,000,000 cells) were subcutaneously transplanted into the chest of nude mouse. […]
(§1) An increase in the tumor volume from that before administration to that on the next day of the final administration was compared to that of the control group and an anti-tumor effect was studied. In addition, the tumor volume was calculated from the following equation: […]
(§2) A ratio of the value obtained by subtracting a tumor volume on the day of the administration initiation from the tumor volume on the next day of the completion of the administration in the control group, and the value obtained by subtracting the tumor volume on the day of the administration initiation from the tumor volume on the next day of the completion of the administration was determined as a growth rate (T/C (%)).

HER2 [2] = molecular target: T1, HER2 (Homo sapiens, UniProt P04626); assay: cell-based
HER2 [3] = molecular target: T1, HER2; assay: in vivo
Protocol: Four hours later, the tumor was sampled and a tumor homogenate was prepared.

786-O = assay: cells; settings: Homo sapiens, 786-0, read-out: Compound B4 IC50 (μmol/L), 786-O
Protocol: (§3) 1) Cell growth inhibitory action; Each cell line was sown in a 24-well multi-well plate (5×10^4 to 2×10^5 cells/well) and cultured overnight in a carbon dioxide gas incubator (5% CO2, 37° C. ).

PA-1 = assay: cells; settings: Homo sapiens, PA-1, read-out: Compound B4 IC50 (μmol/L), PA-1
Protocol: as §3

BT-474 = assay: cells; settings: Homo sapiens, BT-474, read-out: Compound B4 IC50 (μmol/L), BT-474
Protocol: as §3

BxPC-3 = assay: cells; settings: Homo sapiens, BXPC-3, read-out: Compound B4 IC50 (μmol/L), BxPC-3
Protocol: as §3

HCT-116 = assay: cells; settings: Homo sapiens, HCT-116, read-out: Compound B4 IC50 (μmol/L), HCT-116
Protocol: as §3

G401 = assay: cells; settings: Homo sapiens, G-401, read-out: Compound B4 IC50 (μmol/L), G401
Protocol: as §3

SW480 = assay: cells; settings: Homo sapiens, SW480, read-out: Compound B4 IC50 (μmol/L), SW480
Protocol: as §3

NIH: OV-CAR-3 = assay: cells; settings: Homo sapiens, OVCAR-3, read-out: Compound B4 IC50 (μmol/L), NIH: OV-CAR-3
Protocol: as §3

ACHN = assay: cells; settings: Homo sapiens, read-out: Compound B4 IC50 (μmol/L), ACHN
Protocol: as §3

A549 = assay: cells; settings: Homo sapiens, A549, read-out: Compound B4 IC50 (μmol/L), A549
Protocol: as §3

Ma-1 = assay: cells; settings: read-out: Compound B4 IC50 (μmol/L), Ma-1
Protocol: as §3

MIA-PaCa-2 = assay: cells; settings: Homo sapiens, MIA PaCa-2, read-out: Compound B4 IC50 (μmol/L), MIA-PaCa-2
Protocol: as §3

MDA-MB-231 [4] = assay: cells; settings: Homo sapiens, MDA-MB-231, read-out: Compound B4 IC50 (μmol/L), MDA-MB-231
Protocol: as §3

ES-2 = assay: cells; settings: Homo sapiens, ES-2, read-out: Compound B4 IC50 (μmol/L), ES-2
Protocol: as §3

Src = Src (Homo sapiens, UniProt P12931); assay: cell-based
Protocol: The medium was changed to a serum-free medium and the cells were further incubated for one day. […] The culture medium was removed 5 min later and SDS sample buffer was added to give a cell lysate (200 μL).

[5] = tested on: HER2 high expression human breast cancer cells BT-474; settings: BT-474, 1 μmol/L, 5 days
Protocol: After the culture, the culture medium was removed and a cell suspension was prepared by a trypsin treatment and the cells were fixed with 70% ethanol. The DNA of the cells was stained with propidium iodide and the DNA amount was measured by a flow cytometer. The cells with a decreased amount of DNA are apoptotic (cell death) cells.

MDA-MB-231 [6] = settings: breast, HER2 score 0, dose 20 mg/kg/day orally for 14 days
Protocol: as §1, §2

[7] = tested on: HER2 high expression human breast cancer cell BT-474; assay: Anti-tumor effect, combined use, BT-474 cancer-bearing nude mice; format: in vivo; settings: BT-474 nude mice, 5 cases out of 5, same regimens as T/C
Protocol: An increase in the tumor volume from that before administration to that on the next day of the final administration was compared to that of the control group and anti-tumor effect was studied. In addition, the tumor volume was calculated from the following equation:
Formula: Tumor volume=longer diameter×shorter diameter×shorter diameter×(½)
The ratio of the value obtained by subtracting the tumor volume on the day of administration initiation from the tumor volume on the next day of the completion of the administration in the control group, and the value obtained by subtracting the tumor volume on the day of administration initiation from the tumor volume on the next day of the completion of the administration was determined as a growth rate (T/C (%)).

[8] = tested on: HER2 non-expression cells (Ma-1); settings: 3 days, cell count
Protocol: (§4) 1) Cell growth inhibitory action; Each cell line was sown in a 24-well multi-well plate (5×10^4 cells/well) and cultured overnight in a carbon dioxide gas incubator (5% CO2, 37° C. ).

[9] = tested on: HER2/EGF-R co-expression cells (A549); settings: 3 days, cell count
Protocol: as §4

[10] = tested on: HER2 expression cells (Ma-46); settings: 3 days, cell count
Protocol: as §4

T1 sequence (P04626 23-1255): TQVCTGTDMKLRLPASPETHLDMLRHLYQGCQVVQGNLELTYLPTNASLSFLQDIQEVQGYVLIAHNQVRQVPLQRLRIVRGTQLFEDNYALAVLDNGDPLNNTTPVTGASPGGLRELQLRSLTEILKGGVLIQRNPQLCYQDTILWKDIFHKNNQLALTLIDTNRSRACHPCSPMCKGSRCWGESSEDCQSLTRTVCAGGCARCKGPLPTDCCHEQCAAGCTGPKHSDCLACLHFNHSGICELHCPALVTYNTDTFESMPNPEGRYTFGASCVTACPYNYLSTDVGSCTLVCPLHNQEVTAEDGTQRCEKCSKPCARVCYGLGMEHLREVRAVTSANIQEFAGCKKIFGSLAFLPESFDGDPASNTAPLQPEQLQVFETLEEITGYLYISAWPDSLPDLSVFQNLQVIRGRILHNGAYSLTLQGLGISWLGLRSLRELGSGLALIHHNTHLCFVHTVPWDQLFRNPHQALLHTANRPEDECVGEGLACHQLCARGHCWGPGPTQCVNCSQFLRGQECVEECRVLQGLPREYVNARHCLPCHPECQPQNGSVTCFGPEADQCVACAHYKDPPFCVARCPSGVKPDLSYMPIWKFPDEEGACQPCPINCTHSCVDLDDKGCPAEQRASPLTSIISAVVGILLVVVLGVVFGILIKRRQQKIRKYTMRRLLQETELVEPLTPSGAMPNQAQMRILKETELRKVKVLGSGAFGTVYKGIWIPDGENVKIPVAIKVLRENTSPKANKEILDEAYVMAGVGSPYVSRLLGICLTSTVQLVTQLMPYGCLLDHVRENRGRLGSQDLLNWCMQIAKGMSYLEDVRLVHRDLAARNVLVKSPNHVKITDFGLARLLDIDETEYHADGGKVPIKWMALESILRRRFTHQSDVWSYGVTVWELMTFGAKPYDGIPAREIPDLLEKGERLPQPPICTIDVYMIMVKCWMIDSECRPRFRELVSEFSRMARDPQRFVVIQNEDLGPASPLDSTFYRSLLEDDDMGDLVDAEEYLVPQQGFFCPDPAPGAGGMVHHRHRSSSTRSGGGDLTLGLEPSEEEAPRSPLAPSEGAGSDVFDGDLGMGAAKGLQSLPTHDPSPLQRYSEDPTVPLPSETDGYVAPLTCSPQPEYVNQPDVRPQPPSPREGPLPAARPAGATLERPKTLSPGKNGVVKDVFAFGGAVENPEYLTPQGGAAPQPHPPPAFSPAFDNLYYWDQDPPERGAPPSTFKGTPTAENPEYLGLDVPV
Chain of Src (P12931 2-536 limits assumed): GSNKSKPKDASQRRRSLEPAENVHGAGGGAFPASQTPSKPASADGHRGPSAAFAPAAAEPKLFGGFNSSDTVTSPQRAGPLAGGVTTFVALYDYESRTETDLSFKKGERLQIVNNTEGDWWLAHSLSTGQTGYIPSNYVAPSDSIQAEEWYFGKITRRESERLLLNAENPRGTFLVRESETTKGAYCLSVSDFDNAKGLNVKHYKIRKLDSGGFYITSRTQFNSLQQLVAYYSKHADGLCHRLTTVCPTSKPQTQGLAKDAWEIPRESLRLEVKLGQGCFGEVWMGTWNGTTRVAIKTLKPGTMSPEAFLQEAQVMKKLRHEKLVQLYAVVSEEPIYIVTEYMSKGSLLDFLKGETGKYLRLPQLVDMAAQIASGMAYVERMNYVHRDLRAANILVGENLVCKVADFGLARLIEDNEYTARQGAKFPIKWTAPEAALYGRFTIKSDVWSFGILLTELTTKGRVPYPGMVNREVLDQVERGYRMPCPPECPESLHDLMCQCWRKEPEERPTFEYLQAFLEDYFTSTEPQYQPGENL

FC(F)(F)c1ccc(/C=C/c2nc(COc3ccc(CCCCn4ccnn4)cc3)co2)cc1 [Compound B4, 1-(4-{4-[(2-{(E)-2-[4-(trifluoromethyl)phenyl]ethenyl}-1,3-oxazol-4-yl)methoxy]phenyl}butyl)-1H-1,2,3-triazole]
T/C (%), BT-474 [1]: −18% | IC50 (HER2 [2]): 4 nM | inhibition at 20 mg/kg (HER2 [3]; BT-474, mouse, po, read-out: intra-tumor HER2 phosphorylation, % inhibition): 87% | intra-tumor HER2 phosphorylation (per tumor weight), % of the control group (HER2 [3]; BT-474 nude mice, 20 mg/kg/day orally 14 days then 10 mg/kg, tumor sampled four hours later): 13% | IC50 (786-O): > 25 µmol/L | IC50 (PA-1): < 0.05 µmol/L | IC50 (BT-474): 0.05 µmol/L | IC50 (BxPC-3): > 25 µmol/L | IC50 (HCT-116): < 0.05 µmol/L | IC50 (G401): < 0.05 µmol/L | IC50 (SW480): > 25 µmol/L | IC50 (NIH: OV-CAR-3): 0.06 µmol/L | IC50 (ACHN): 0.14 µmol/L | IC50 (A549): 0.008 µmol/L | IC50 (Ma-1): > 25 µmol/L | IC50 (MIA-PaCa-2): 0.02 µmol/L | IC50 (MDA-MB-231 [4]): > 25 µmol/L | IC50 (ES-2): 12 µmol/L | IC50 (Src): > 25 µM | cell death induction [5]: induced cell death | T/C (%), MDA-MB-231 (MDA-MB-231 [6]): 87% | reduction of tumor volume [7]: 13-30% | cell growth inhibitory action on Ma-1 [8]: did not show a cell growth inhibitory action | cell growth inhibitory action on A549 [9]: strong cell growth inhibitory action | cell growth inhibitory action on Ma-46 [10]: strong cell growth inhibitory action
